# Experimental data as given in paper PMC9603750, “Chalcone-Acridine Hybrid Suppresses Melanoma Cell Progression via G2/M Cell Cycle Arrest, DNA Damage, Apoptosis, and Modulation of MAP Kinases Activity” (International Journal of Molecular Sciences, 2022).
# Key:
# [1] = tested on: BLM melanoma cells; assay: Flow cytometric analysis of DNA damage (ATM, SMC1, H2A.X phosphorylation); format: cell-based, human
# Experimental: (§1) The A2058 and BLM melanoma cells were seeded 1 × 10^6 in Petri dishes with complete growth medium and cultivated for 24 h. After cell cultivation, the A2058 cells were treated with chalcone 1C at 10 μmol/L concentration, BLM cells at 20 μmol/L concentration and both melanoma cell lines were treated with DMSO as the negative control at the same concentrations for 24, 48 and 72 h. Adherent and floating cells were harvested, pelleted by centrifugation at 1200 rpm for 5 min. Pellets were resuspended in washing buffer (PBS) and divided for a particular analysis. Afterwards, cells were prepared according to assay kit protocols or fixed with cold 4% paraformaldehyde (15 min) and permeabilized with 90% methanol (10 min on ice) with washing steps (PBS) and stained prior to analysis (Table 5) for 15 min in the dark at room temperature. Fluorescence was detected using a BD FACSCalibur^TM Flow Cytometer (Becton Dickinson, San Jose, CA, USA).
# [2] = tested on: A2058 melanoma cells; assay: as above; format: cell-based, human
# Experimental: as §1
# [3] = tested on: BLM melanoma cells; assay: Flow cytometric analysis of mitochondrial membrane potential (TMRE); format: cell-based, human; conditions: 1C 20 μmol/L, 24, 48 and 72 h
# Experimental: as §1
# [4] = tested on: A2058 melanoma cells; assay: as above; format: cell-based, human; conditions: A2058, 1C 10 μmol/L, 24, 48 and 72 h
# Experimental: as §1
# [5] = tested on: BLM melanoma cells; assay: Western blot analyses of protein expression/phosphorylation; format: cell-based, human
# Experimental: Melanoma cells (A2058 and BLM) were treated with the tested chalcone 1C (10 μM and 20 μM) for 24, 48 and 72 h. Protein lysates from melanoma cells were prepared using a Laemmle lysis buffer containing glycerol, 1M Tris/HCl (pH 6.8), 20% sodium dodecyl sulfate (SDS), deionized H20, phosphatase and protease inhibitors (Sigma-Aldrich) and a sonication process. The protein concentrations were determined by the Pierce® BCA Protein Assay Kit (Thermo Scientific, Rockford, IL, USA) and measured by an automated Cytation™ 3 Cell Imaging Multi-Mode Reader (Biotek) at a wavelength of 570 nm. Proteins (25–40 μg of sample per well) were separated on SDS-PAA gel (12%) at 100 V for 3 h and transferred to a polyvinylidene difluoride (PVDF) membrane using the iBlot™ 2 Dry Blotting System (Invitrogen, Carlsbad, CA, USA). Membranes with transferred proteins were blocked in 5% BSA (bovine serum albumin; SERVA, Heidelberg, Germany) or 5% non-fat dry milk (Cell Signaling Technology®, Danvers, MA, USA) in TBS-Tween (pH 7.4) for 1 h at room temperature to minimise non-specific binding. Blocking was followed by incubation with primary antibodies (Table 6) overnight at 4 °C. The next day, membranes were washed in TBS-Tween (3 × 5 min) and incubated with the corresponding horseradish peroxidase (HRP)-conjugated anti-mouse or anti-rabbit secondary antibody for 1 h at room temperature. After incubation, membranes were washed again in TBS-Tween (3 × 5 min) and the expression of proteins was detected using the MF-ChemiBIS 2.0 Imaging System (DNR BIO-Imaging Systems, Jerusalem, Israel) with chemiluminescent ECL substrate (Thermo Scientific, Rockford, IL, USA). A densitometric analysis of Western Blot (WB) results was performed using the Image Studio™ Lite Software (LI-COR Biosciences, Lincoln, NE, USA). Equal loading was verified by using the β-actin antibody. Three independent analyses were performed.
# [6] = tested on: MCF-10A; assay: MTT assay (metabolic activity); format: cell-based; conditions: Homo sapiens; MCF-10A noncancer cell line, 72 h incubation
# Experimental: Cell lines A2058 (human melanoma lymph node metastasis, cat. 91100402) from ECACC (Public Health England, Salisbury, UK) and BLM (human melanoma lung metastasis a gift from prof. K. Smetana, Institute of Anatomy, Charles University in Prague) were cultured in a medium consisting of high glucose Dulbecco’s Modified Eagle’s Medium (DMEM) and sodium pyruvate (GE Healthcare, Piscataway, NJ, USA). The growth medium was supplemented with a 10% fetal bovine serum (FBS) and antibiotic/antimycotic solution 1 × HyClone™ (GE Healthcare, Chicago, IL, USA). The MCF-10A (human mammary epithelial cells) cell line was cultured in a medium consisting of high glucose Dulbecco’s Modified Eagle’s Medium F12 (DMEM/F12) (Biosera, Kansas City, MO, USA). The growth medium was supplemented with a 10% FBS, antibiotic/antimycotic solution 1 × HyClone™ (GE Healthcare, Chicago, IL, USA), epidermal growth factor (EGF) (20 ng/mL final), hydrocortisone (0.5 μg/mL final) and insulin (10 μg/mL final) (Sigma-Aldrich Chemie, Steinheim, Germany). Cells were cultured in humidified air at 37 °C with atmosphere containing 5% CO2.
# The half-maximal inhibitory concentration values (IC50) and metabolism inhibition of tested synthetic chalcone derivatives were determined by MTT (3-(4,5-di-methylthiazol-2-yl)2,5-diphenyltetrazolium bromide) colorimetric assay (Sigma-Aldrich Chemie, Steinheim, Germany). Tested cell lines were seeded at a density of 5 × 10^3 cells/well in 96-well culture plates. After 24 h, the tested chalcones in concentrations of 100, 50 and 10 μmol/L were added and incubation proceeded for the next 72 h. In the next step, 10 μL of MTT (5 mg/mL) was added to each well containing cells and incubated for another 4 h at 37 °C during which MTT was metabolized to insoluble formazan in cells. After 4 h, 100 μL of a 10% sodium dodecyl sulphate (SDS) was added to each well and another 24 h were allowed for the formazan crystals to dissolve. The metabolic activity of cells was evaluated by measuring the absorbance at wavelength 540 nm using the automated Cytation™ 3 Cell Imaging Multi-Mode Reader (Biotek, Winooski, VT, USA). Three independent analyses were performed.
# [7] = tested on: MCF-10A; assay: BrdU cell proliferation assay; format: cell-based; conditions: Homo sapiens; MCF-10A noncancer cell line
# [8] = tested on: BLM melanoma cells; assay: Flow cytometric analysis of cytochrome c release; format: cell-based, human; conditions: 1C 20 μmol/L, 24, 48 and 72 h
# Experimental: as §1
# [9] = tested on: A2058 melanoma cells; assay: Flow cytometric analysis of cytochrome c release; format: cell-based, human; conditions: A2058, 1C 10 μmol/L, 24, 48 and 72 h
# Experimental: as §1
# [10] = A2058, 1C 10 μmol/L, 24, 48 and 72 h
# [11] = 1C 20 μmol/L, maximum after 72 h
compound,measurement,setting,value
"COc1cccc(OC)c1C(=O)/C=C/c1c2ccccc2nc2ccccc12 [Compound 1C, (2E)-3-(acridin-9-yl)-1-(2,6-dimethoxyphenyl)prop-2-en-1-one]",Phosphorylation of H2A.X,"[1]; 1C 20 μmol/L, 24, 48 and 72 h",significantly induced
same,Phosphorylation of SMC1,"[1]; 1C 20 μmol/L, 24, 48 and 72 h",significant phosphorylation
same,Phosphorylation of ATM,"[1]; 1C 20 μmol/L, time-dependent (24, 48 and 72 h)",significantly induced
same,Phosphorylation of H2A.X,[2]; [10],significantly induced
same,Phosphorylation of SMC1,[2]; [10],significant phosphorylation
same,Phosphorylation of ATM,"[2]; A2058, 1C 10 μmol/L, time-dependent (24, 48 and 72 h)",significantly induced
same,Cells with reduced mitochondrial membrane potential (MMP),[3],significant increase
same,Cells with reduced mitochondrial membrane potential (MMP),[4],significant increase
same,Expression of p21 protein (WB),[5]; 1C 20 μmol/L,showed an increase and maintained a trend
same,Levels of antiapoptotic protein Bcl-xL (WB),[5]; 1C 20 μmol/L,decreased levels
same,Phosphorylation of Bad (WB),[5]; 1C 20 μmol/L,increasing up to 48 h
same,Phosphorylation of Bcl-2 (WB),[5]; 1C 20 μmol/L,increased up to the 72 h time point
same,Phosphorylation of Chk1 (WB),[5]; 1C 20 μmol/L,consilient trend of Chk1 phosphorylation
same,Phosphorylation of ERK1/2 (WB),[5]; 1C 20 μmol/L,consilient trend of ERK1/2 phosphorylation
same,Total Bcl-2 protein upregulated (WB),[5]; 1C 20 μmol/L,it was not
same,p53 phosphorylation (WB),[5]; 1C 20 μmol/L,phosphorylation increased late on 72 h
same,Levels of cleaved PARP (89 kDa) (WB),"[5]; 1C 20 μmol/L, 24, 48 and 72 h",significantly increased
same,Total p53 protein (WB),"[5]; 1C 20 μmol/L, 24, 48 and 72 h","maintenanted on basic levels as DMSO treated controls, with little decrease at 24 h"
same,Phospho-JNK (WB),"[5]; 1C 20 μmol/L, all tested timepoints",significantly increased
same,Phosphorylated form of p38 MAPK (WB),"[5]; 1C 20 μmol/L, mainly after 48 h",significantly increased
same,Expression of α1C-tubulin (WB),[5]; [11],upregulation
same,Phosphorylated cyclin B1 (WB),[5]; [11],significant downregulation
same,Amounts of proapoptotic protein Bax and Bad (WB),"[5]; 1C 20 μmol/L, maximum at 48 h",significantly increased
same,Expression of α- and β-tubulin (WB),"[5]; 1C 20 μmol/L, time-dependent",significant downregulation
same,IC50,[6],36.5 ± 0.87 µM
same,IC50,[7],32.9 ± 1.56 µM
same,Cytochrome c release,[8],significant release of cytochrome c
same,Cytochrome c release,[9],significant release of cytochrome c
